Test results published in ChEMBL document CHEMBL5257025, “Artemisinin-Derived Dimers: Potent Antimalarial and Anticancer Agents” (J Med Chem, 2016).

Tests used:
Plasmodium falciparum [1] = test: Antimalarial activity against Plasmodium falciparum NF54 assessed as reduction in cell growth; type: functional, organism-based
Plasmodium falciparum [2] = test: Antiplasmodial activity against Plasmodium falciparum NF54 assessed as reduction in malarial growth; type: functional, organism-based
Plasmodium falciparum [3] = test: Antimalarial activity against Plasmodium falciparum K1 assessed as inhibition of malarial growth; type: functional, organism-based
[4] = Cytotoxicity against African green monkey Vero cells; type: toxicity, cell-based; settings: chlorocebus sabaeus, read-out: TC50 (the source's name)
KB = test: Antiproliferative activity against human KB cells assessed as reduction in cell viability incubated for 48 hrs by MTT assay; type: functional, cell-based
MDA-MB-231 = test: Antiproliferative activity against human MDA-MB-231 cells assessed as reduction in cell viability measured after 48 hrs by MTT assay; type: functional, cell-based; settings: MDA-MB-231, 48 h
HT-29 = test: cells; settings: Homo sapiens, HT-29, 72 h

Row | SMILES | IC50 (Plasmodium falciparum [1]) [nM] | IC50 (Plasmodium falciparum [2]) [nM] | also measured
1 | C[C@@H]1CC[C@H]2[C@@H](C)C(CC(=O)CC3O[C@H]4O[C@@]5(C)CC[C@H]6[C@H](C)CC[C@@H]([C@H]3C)[C@@]46OO5)O[C@H]3O[C@@]4(C)CC[C@@H]1[C@]32OO4 (stereo not given in full) | 0.91 | – | –
2 | C[C@@H]1CC[C@H]2[C@@H](C)C(CC(O)(CO)CC3O[C@H]4O[C@@]5(C)CC[C@H]6[C@H](C)CC[C@@H]([C@H]3C)[C@@]46OO5)O[C@H]3O[C@@]4(C)CC[C@@H]1[C@]32OO4 (stereo not given in full) | 0.59 | – | –
3 | C[C@@H]1CC[C@H]2[C@@H](C)C(/C=C\c3ccc(/C=C\C4O[C@H]5O[C@@]6(C)CC[C@H]7[C@H](C)CC[C@@H]([C@H]4C)[C@@]57OO6)cc3)O[C@H]3O[C@@]4(C)CC[C@@H]1[C@]32OO4 (stereo not given in full) | – | 18 | –
4 | C[C@@H]1CC[C@H]2[C@@H](C)C(CC#Cc3cccc(C#CCC4O[C@H]5O[C@@]6(C)CC[C@H]7[C@H](C)CC[C@@H]([C@H]4C)[C@@]57OO6)c3)O[C@H]3O[C@@]4(C)CC[C@@H]1[C@]32OO4 (stereo not given in full) | – | 36 | –
5 | C[C@@H]1CC[C@H]2[C@@H](C)C(CCOCc3ccc(COCCC4O[C@H]5O[C@@]6(C)CC[C@H]7[C@H](C)CC[C@@H]([C@H]4C)[C@@]57OO6)cc3)O[C@H]3O[C@@]4(C)CC[C@@H]1[C@]32OO4 (stereo not given in full) | – | – | IC50 (Plasmodium falciparum [3]): 2.4 nM
6 | CCC[C@@]1(C[C@@H]2C(=O)O[C@H]3O[C@@]4(C)CC[C@H]5[C@H](C)CC[C@@H]2[C@@]35OO4)O[C@H]2O[C@@]3(C)CC[C@H]4[C@H](C)CC[C@@H]([C@H]1C)[C@@]24OO3 | – | – | CC50 [4]: > 130000 nM
7 | C=C(CC1O[C@H]2O[C@@]3(C)CC[C@H]4[C@H](C)CC[C@@H]([C@H]1C)[C@@]24OO3)CC1O[C@H]2O[C@@]3(C)CC[C@H]4[C@H](C)CC[C@@H]([C@H]1C)[C@@]24OO3 (stereo not given in full) | 24 | 24 | –
8 | C[C@@H]1CC[C@H]2[C@@H](C)C(CC#Cc3ccc(C#CCC4O[C@H]5O[C@@]6(C)CC[C@H]7[C@H](C)CC[C@@H]([C@H]4C)[C@@]57OO6)cc3)O[C@H]3O[C@@]4(C)CC[C@@H]1[C@]32OO4 (stereo not given in full) | – | 30 | –
9 | C[C@@H]1CC[C@H]2[C@@H](C)C(/C=C/c3cccc(/C=C/C4O[C@@H]5O[C@]6(C)CC[C@@H]7[C@@H](C)CC[C@H]([C@@H]4C)[C@]57OO6)c3)O[C@H]3O[C@@]4(C)CC[C@@H]1[C@]32OO4 (stereo not given in full) | – | 77 | –
10 | C[C@@H]1CC[C@H]2[C@@H](C)C(CC(COC(=O)c3cc(=O)oc4cc(N(C)C)ccc34)CC3O[C@H]4O[C@@]5(C)CC[C@H]6[C@H](C)CC[C@@H]([C@H]3C)[C@@]46OO5)O[C@H]3O[C@@]4(C)CC[C@@H]1[C@]32OO4 (stereo not given in full) | 2.4 | – | –
11 | C[C@@H]1CC[C@H]2[C@@H](C)C(CC(COS(=O)(=O)c3cccc4c(N(C)C)cccc34)CC3O[C@H]4O[C@@]5(C)CC[C@H]6[C@H](C)CC[C@@H]([C@H]3C)[C@@]46OO5)O[C@H]3O[C@@]4(C)CC[C@@H]1[C@]32OO4 (stereo not given in full) | 3.9 | – | –
12 | C[C@@H]1CC[C@H]2[C@@H](C)C(OC/C=C\COC3O[C@H]4O[C@@]5(C)CC[C@H]6[C@H](C)CC[C@@H]([C@H]3C)[C@@]46OO5)O[C@H]3O[C@@]4(C)CC[C@@H]1[C@]32OO4 (stereo not given in full) | – | – | IC50 (KB): 320 nM
13 | CCCC[C@@]1(C[C@@H]2C(=O)O[C@H]3O[C@@]4(C)CC[C@H]5[C@H](C)CC[C@@H]2[C@@]35OO4)O[C@H]2O[C@@]3(C)CC[C@H]4[C@H](C)CC[C@@H]([C@H]1C)[C@@]24OO3 | – | – | CC50 [4]: > 130000 nM
14 | CCN(CC)CCCC(C)Nc1ccnc2cc(Cl)ccc12 (stereo not given) [CHLOROQUINE] | – | – | CC50 [4]: > 14900 nM
15 | COc1cc(OC)c(C2O[C@H]3O[C@@]4(C)CC[C@H]5[C@H](C)CC[C@@H]([C@H]2C)[C@@]35OO4)cc1C1O[C@H]2O[C@@]3(C)CC[C@H]4[C@H](C)CC[C@@H]([C@H]1C)[C@@]24OO3 (stereo not given in full) | – | 1.3 | –
16 | C[C@@H]1CC[C@H]2[C@@H](C)C(CC(O)(CCS(=O)(=O)c3ccc(C(=O)O)cc3)CC3O[C@H]4O[C@@]5(C)CC[C@H]6[C@H](C)CC[C@@H]([C@H]3C)[C@@]46OO5)O[C@H]3O[C@@]4(C)CC[C@@H]1[C@]32OO4 (stereo not given in full) | 2.4 | – | –
17 | C[C@@H]1CC[C@H]2[C@@H](C)C(OCCN/C(=N/c3cccc(F)c3)NCCOC3O[C@@H]4O[C@]5(C)CC[C@@H]6[C@@H](C)CC[C@H]([C@@H]3C)[C@]46OO5)O[C@H]3O[C@@]4(C)CC[C@@H]1[C@]32OO4 (stereo not given in full) | – | – | IC50 (MDA-MB-231): 1330 nM; IC50 (HT-29): 90 nM
18 | C[C@@H]1CC[C@H]2[C@@H](C)C(CC(O)(CC3O[C@@H]4O[C@]5(C)CC[C@@H]6[C@@H](C)CC[C@H]([C@@H]3C)[C@]46OO5)c3ccc(C(=O)O)cc3)O[C@H]3O[C@@]4(C)CC[C@@H]1[C@]32OO4 (stereo not given in full) | 2.1 | – | –
19 | C[C@@H]1CC[C@H]2[C@@H](C)C(/C=C\c3cccc(/C=C/C4O[C@H]5O[C@@]6(C)CC[C@H]7[C@H](C)CC[C@@H]([C@H]4C)[C@@]57OO6)c3)O[C@H]3O[C@@]4(C)CC[C@@H]1[C@]32OO4 (stereo not given in full) | – | 35 | –
20 | C[C@@H]1CC[C@H]2[C@@H](C)C(CC(O)(COC(=O)CCC(=O)O)CC3O[C@H]4O[C@@]5(C)CC[C@H]6[C@H](C)CC[C@@H]([C@H]3C)[C@@]46OO5)O[C@H]3O[C@@]4(C)CC[C@@H]1[C@]32OO4 (stereo not given in full) | 3 | – | –
21 | CCCCCC[C@@]1(C[C@@H]2C(=O)O[C@H]3O[C@@]4(C)CC[C@H]5[C@H](C)CC[C@@H]2[C@@]35OO4)O[C@H]2O[C@@]3(C)CC[C@H]4[C@H](C)CC[C@@H]([C@H]1C)[C@@]24OO3 | – | – | CC50 [4]: 2500 nM; IC50 (KB): 4000 nM
22 | C[C@H]1[C@H](CCC(=O)c2ccc(C(=O)C[C@@H]3O[C@H]4O[C@@]5(C)CC[C@H]6[C@H](C)CC[C@@H]([C@H]3C)[C@@]46OO5)cc2)O[C@H]2O[C@@]3(C)CC[C@H]4[C@H](C)CC[C@@H]1[C@@]24OO3 | – | 1.9 | –
23 | C[C@H]1[C@H](CC(=O)c2ccc(C(=O)CC[C@H]3O[C@H]4O[C@@]5(C)CC[C@H]6[C@H](C)CC[C@@H]([C@H]3C)[C@@]46OO5)cc2)O[C@H]2O[C@@]3(C)CC[C@H]4[C@H](C)CC[C@@H]1[C@@]24OO3 | 3.9 | 1.7 | –
24 | C[C@@H]1CC[C@H]2[C@@H](C)C(CC(COC(=O)c3ccncc3)CC3O[C@H]4O[C@@]5(C)CC[C@H]6[C@H](C)CC[C@@H]([C@H]3C)[C@@]46OO5)O[C@H]3O[C@@]4(C)CC[C@@H]1[C@]32OO4 (stereo not given in full) | 1.7 | – | –
25 | C[C@@H]1CC[C@H]2[C@@H](C)C(CC(=O)c3cccc(C(=O)CC4O[C@H]5O[C@@]6(C)CC[C@H]7[C@H](C)CC[C@@H]([C@H]4C)[C@@]57OO6)c3)O[C@H]3O[C@@]4(C)CC[C@@H]1[C@]32OO4 (stereo in doubt) | – | 1.9 | –
26 | C[C@@H]1CC[C@H]2[C@@H](C)C(CC3(CC4O[C@H]5O[C@@]6(C)CC[C@H]7[C@H](C)CC[C@@H]([C@H]4C)[C@@]57OO6)CO3)O[C@H]3O[C@@]4(C)CC[C@@H]1[C@]32OO4 (stereo not given in full) | 2.8 | – | –
